Results: article PMC4786998 (Journal of Hematology & Oncology, 2016)
Where two headings read alike, the source gives them in different places.

What was measured:
[1] = test system: wild-type ALK and EML4-ALK L1196M xenograft tumors; settings: mice, subcutaneous and intracranial xenografts, compared with crizotinib; cited from earlier work
[2] = Electrocardiogram QTcF in phase I patients; settings: 325-mg dose
Description: The safety and tolerability of […] were assessed by adverse events (AEs) (graded based on NCI-CTCAE v4.03), laboratory tests, vital signs, electrocardiograms, and clinical observations.

[3] = test system: crizotinib-resistant ALK-positive tumors; experiment: Antitumor response by RECIST v1.1 in the dose-expansion cohort; format: in vivo, human
Source text: Solid tumor assessment was based on Response Evaluation Criteria in Solid Tumors (RECIST) v1.1. For target lesions, complete response (CR) was defined as disappearance of all target lesions and pathologic lymph nodes with a reduction in short axis to <10 mm. Partial response (PR) was defined as a ≥30 % decrease in the sum of diameters of the target lesions, taking as reference the baseline sum of diameters. Progressive disease (PD) was defined as a ≥20 % increase in the sum of diameters from the smallest sum on the study and the sum of diameters to be ≥5 mm from the smallest sum on study. Stable disease (SD) was defined as neither PR nor PD.
For patients in the dose-expansion cohort with evaluable tumor diameter, the best tumor reduction was calculated as the decrease from baseline in the sum of the target lesions.
For continuous variables, descriptive statistics included the number of patients, mean (standard deviation), median, and range. For antitumor assessments, the number and percentage (95 % CI) of patients with CR, PR, SD, and PD were summarized. The overall best tumor response was also summarized. For the objective response rates, the exact confidence interval of response was calculated only for the dose-expansion cohort using the Clopper–Pearson method. For continuous PK parameters, the coefficient of variation was calculated. For Cmax and AUC, geometric mean was calculated. All data processing and analyses were performed using SAS® Version 9.1.3 or higher.

[4] = Plasma pharmacokinetics in phase I patients; format: in vivo, human; settings: for AUC: read-out: AUC24
Description: On day 1, the following PK parameters were assessed for […]: area under the plasma concentration-time curve (AUC24), AUClast, maximum concentration observed (Cmax), and time of maximum concentration observed (tmax). On day 28, [NT], Cmax, Ctrough, tmax, CL/F, Vz/F, and t1⁄2, calculated based on the ratio of accumulation for AUC (day 28 AUCtau/day 1 AUC24) (Rac [AUC]), were assessed. Cumulative effects on steady-state […] plasma levels were assessed by comparing Ctrough on day 28 divided by Ctrough on days 8, 15, and 22. For continuous variables, descriptive statistics included the number of patients, mean (standard deviation), median, and range. For antitumor assessments, the number and percentage (95 % CI) of patients with CR, PR, SD, and PD were summarized. The overall best tumor response was also summarized. For the objective response rates, the exact confidence interval of response was calculated only for the dose-expansion cohort using the Clopper-Pearson method. For continuous PK parameters, the coefficient of variation was calculated. For Cmax and AUC, geometric mean was calculated. All data processing and analyses were performed using SAS® Version 9.1.3 or higher. The safety analysis set was defined as patients who received at least one […] dose. The PK analysis set was defined as patients who received at least one dose of […] and provided the values of drug concentrations for at least one time point.

[5] = Phase I safety/tolerability (adverse events, DLT, MTD) in patients with advanced solid tumors
Description: The study was divided into two parts: dose escalation and dose expansion. Dose escalation used a traditional 3 + 3 dose-escalation design. […] The first patient in each dose-escalation cohort was evaluated for dose-limiting toxicities (DLTs) in cycle 1, day 4. If no DLTs were reported by the investigator, the remaining patients in the cohort were enrolled. […] The protocol allowed that and subsequent doses to be expanded to enroll an additional three patients who were known to have tumors tested positive for ALK abnormalities once safety was established in the first three subjects for that cohort.

[6] = molecular target: wild-type ALK kinase domain; settings: cited from earlier work
[7] = test system: panel of 86 tyrosine kinases; settings: 1 μmol/L; cited from earlier work
L1196M ALK kinase domain = settings: cited from earlier work
[8] = expansion cohort, 525 mg, n = 16
[9] = human, plasma, oral, 25 mg, cycle 1, day 1, 25 mg once daily, dose-escalation cohort, n = 4, mean (standard deviation)
[10] = human, plasma, oral, 25 mg, cycle 1, day 28, 25 mg once daily, dose-escalation cohort, n = 3, mean (standard deviation)
[11] = human, plasma, oral, 50 mg, cycle 1, day 1, 50 mg once daily, dose-escalation cohort, n = 3, mean (standard deviation)
[12] = human, plasma, oral, 50 mg, cycle 1, day 28, 50 mg once daily, dose-escalation cohort, n = 3, mean (standard deviation)
[13] = human, plasma, oral, 75 mg, cycle 1, day 1, 75 mg once daily, dose-escalation cohort, n = 3, mean (standard deviation)
[14] = human, plasma, oral, 75 mg, cycle 1, day 28, 75 mg once daily, dose-escalation cohort, n = 3, mean (standard deviation)
[15] = human, plasma, oral, 125 mg, cycle 1, day 1, 125 mg once daily, dose-escalation cohort, n = 4, mean (standard deviation)
[16] = human, plasma, oral, 125 mg, cycle 1, day 28, 125 mg once daily, dose-escalation cohort, n = 1
[17] = human, plasma, oral, 200 mg once daily, cycle 1, day 28, 200 mg once daily, dose-escalation cohort, n = 3, mean (standard deviation)
[18] = human, plasma, oral, 200 mg, cycle 1, day 1, 200 mg once daily, dose-escalation cohort, n = 4, mean (standard deviation)
[19] = human, plasma, oral, 325 mg once daily, cycle 1, day 28, 325 mg once daily, dose-escalation cohort, n = 3, mean (standard deviation)
[20] = human, plasma, oral, 325 mg, cycle 1, day 1, 325 mg once daily, dose-escalation cohort, n = 3, mean (standard deviation)
[21] = human, plasma, oral, 800 mg, cycle 1, day 1, 800 mg once daily, dose-escalation cohort, n = 3, mean (standard deviation)
[22] = human, plasma, oral, 800 mg, cycle 1, day 28, 800 mg once daily, dose-escalation cohort, n = 1

Compound: COc1cc(N2CCC(N3CCN(C)CC3)CC2)ccc1Nc1ncnc(Nc2ccccc2S(=O)(=O)C(C)C)n1 [ASP3026]
- antitumor activity in xenograft tumors [1]: potent antitumor activity
- QTcF, mean (standard deviation) maximal increase [2]: 47.0 (10.7) ms
- best overall response: stable disease rate ([3]; 525 mg, 16 crizotinib-resistant ALK-positive patients): 44%
- best overall response: partial response rate ([3]; 525 mg, 16 crizotinib-resistant ALK-positive patients (15 NSCLC, 1 neuroblastoma)): 50%
- objective (overall) response rate (CR + PR) ([3]; 525 mg, 16 crizotinib-resistant ALK-positive patients, 95 % CI 25–75 %): 50%
- stable disease rate ([3]; 525 mg, restricted to ALK-positive NSCLC patients, 6/15): 40%
- partial response rate ([3]; 525 mg, restricted to ALK-positive NSCLC patients, 8/15): 53%
- median progression-free survival ([3]; ALK-positive patients, 95 % CI 4–9): 6 months
- duration of response, range ([3]; dose-expansion cohort, 525 mg): 27 to 338 days
- Best overall response: complete response [3, 8]: 0 n (%)
- Best overall response: partial response [3, 8]: 8 (50) n (%)
- Best overall response: progressive disease [3, 8]: 0 n (%)
- Best overall response: stable disease [3, 8]: 7 (44) n (%)
- Best overall response: unable to evaluate [3, 8]: 1 (6) n (%)
- Objective response (complete response + partial response) ([3]; expansion cohort, 525 mg, n = 16, 95 % CI 25–75 %): 8 (50) n (%)
- slope estimate (95 % CI) of dose-normalized AUClast versus dose ([4]; human, in vivo): 0.090 (−0.097, 0.277)
- slope estimate (95 % CI) of dose-normalized Cmax versus dose ([4]; human, in vivo): 0.170 (−0.018, 0.358)
- t ½ ([4]; human, in vivo): 24.9 (12.7) h
- time to steady-state plasma concentrations ([4]; human, in vivo): ≤ 8 days
- half-life ([4]; human, in vivo, accumulation half-life, mean (standard deviation)): 25 h
- half-life ([4]; human, in vivo, half-life, range): 22 to 85 h
- half-life ([4]; human, in vivo, median half-life): 35 h
- Tmax ([4]; human, in vivo, po, tmax): ~3 h
- Tmax ([4]; human, in vivo, t max): 4 h
- half-life ([4]; human, in vivo, t ½): 27.3 h
- Cmax [4, 9]: 32 ng/mL
- AUC [4, 9]: 378 ng·h/mL
- Tmax ([4]; human, plasma, oral, 25 mg, cycle 1, day 1, 25 mg once daily, dose-escalation cohort, n = 4, median (range), read-out: t max): 3 h
- Cmax [4, 10]: 68.4 ng/mL
- half-life ([4]; human, plasma, oral, 25 mg, cycle 1, day 28, 25 mg once daily, dose-escalation cohort, n = 3, mean (standard deviation), calculated from accumulation ratio, read-out: t ½ (converted)): 36.6 h
- AUC [4, 10]: 1040 ng·h/mL
- Tmax ([4]; human, plasma, oral, 25 mg, cycle 1, day 28, 25 mg once daily, dose-escalation cohort, n = 3, median (range), read-out: t max): 3 h
- Cmax [4, 11]: 99.7 ng/mL
- AUC [4, 11]: 846 ng·h/mL
- Tmax ([4]; human, plasma, oral, 50 mg, cycle 1, day 1, 50 mg once daily, dose-escalation cohort, n = 3, median (range), read-out: t max): 3 h
- Cmax [4, 12]: 143 ng/mL
- half-life ([4]; human, plasma, oral, 50 mg, cycle 1, day 28, 50 mg once daily, dose-escalation cohort, n = 3, mean (standard deviation), calculated from accumulation ratio, read-out: t ½ (converted)): 35.2 h
- AUC [4, 12]: 2110 ng·h/mL
- Tmax ([4]; human, plasma, oral, 50 mg, cycle 1, day 28, 50 mg once daily, dose-escalation cohort, n = 3, median (range), read-out: t max): 3 h
- Cmax [4, 13]: 87.6 ng/mL
- AUC [4, 13]: 1160 ng·h/mL
- Tmax ([4]; human, plasma, oral, 75 mg, cycle 1, day 1, 75 mg once daily, dose-escalation cohort, n = 3, median (range), read-out: t max): 8.2 h
- Cmax [4, 14]: 352 ng/mL
- half-life ([4]; human, plasma, oral, 75 mg, cycle 1, day 28, 75 mg once daily, dose-escalation cohort, n = 3, mean (standard deviation), calculated from accumulation ratio, read-out: t ½ (converted)): 84.7 h
- AUC [4, 14]: 5630 ng·h/mL
- Tmax ([4]; human, plasma, oral, 75 mg, cycle 1, day 28, 75 mg once daily, dose-escalation cohort, n = 3, median (range), read-out: t max): 3 h
- Cmax [4, 15]: 262 ng/mL
- AUC [4, 15]: 3000 ng·h/mL
- Tmax ([4]; human, plasma, oral, 125 mg, cycle 1, day 1, 125 mg once daily, dose-escalation cohort, n = 4, median (range), read-out: t max): 5 h
- Cmax [4, 16]: 668 ng/mL
- half-life ([4]; human, plasma, oral, 125 mg, cycle 1, day 28, 125 mg once daily, dose-escalation cohort, n = 1, calculated from accumulation ratio, read-out: t ½ (converted)): 36.7 h
- AUC [4, 16]: 8970 ng·h/mL
- Tmax ([4]; human, plasma, oral, 125 mg, cycle 1, day 28, 125 mg once daily, dose-escalation cohort, n = 1, read-out: t max): 2.1 h
- Cmax [4, 17]: 682 ng/mL
- half-life ([4]; human, plasma, oral, 200 mg once daily, cycle 1, day 28, 200 mg once daily, dose-escalation cohort, n = 3, mean (standard deviation), calculated from accumulation ratio, read-out: t ½ (converted)): 21.9 h
- AUC [4, 17]: 7620 ng·h/mL
- Tmax ([4]; human, plasma, oral, 200 mg once daily, cycle 1, day 28, 200 mg once daily, dose-escalation cohort, n = 3, median (range), read-out: t max): 3 h
- Cmax [4, 18]: 490 ng/mL
- AUC [4, 18]: 4580 ng·h/mL
- Tmax ([4]; human, plasma, oral, 200 mg, cycle 1, day 1, 200 mg once daily, dose-escalation cohort, n = 4, median (range), read-out: t max): 2.5 h
- Cmax [4, 19]: 1160 ng/mL
- half-life ([4]; human, plasma, oral, 325 mg once daily, cycle 1, day 28, 325 mg once daily, dose-escalation cohort, n = 3, mean (standard deviation), calculated from accumulation ratio, read-out: t ½ (converted)): 26.3 h
- AUC [4, 19]: 18800 ng·h/mL
- Tmax ([4]; human, plasma, oral, 325 mg once daily, cycle 1, day 28, 325 mg once daily, dose-escalation cohort, n = 3, median (range), read-out: t max): 4 h
- Cmax [4, 20]: 586 ng/mL
- AUC [4, 20]: 7950 ng·h/mL
- Tmax ([4]; human, plasma, oral, 325 mg, cycle 1, day 1, 325 mg once daily, dose-escalation cohort, n = 3, median (range), read-out: t max): 3 h
- Cmax [4, 21]: 1630 ng/mL
- AUC [4, 21]: 21800 ng·h/mL
- Tmax ([4]; human, plasma, oral, 800 mg, cycle 1, day 1, 800 mg once daily, dose-escalation cohort, n = 3, median (range), read-out: t max): 3 h
- Cmax [4, 22]: 4850 ng/mL
- half-life ([4]; human, plasma, oral, 800 mg, cycle 1, day 28, 800 mg once daily, dose-escalation cohort, n = 1, calculated from accumulation ratio, read-out: t ½ (converted)): 37.9 h
- AUC [4, 22]: 78100 ng·h/mL
- Tmax ([4]; human, plasma, oral, 800 mg, cycle 1, day 28, 800 mg once daily, dose-escalation cohort, n = 1, read-out: t max): 4 h
- linearity and dose proportionality of exposure (Cmax and AUClast) ([4]; multiple dosing (day 28), 25- to 800-mg dose range): both linear and dose-proportional exposure
- deaths on study ([5]; all due to PD, not related to the study drug): three
- changes in clinical laboratory parameters or vital signs over time ([5]; human, in vivo): no meaningful changes
- treatment-related adverse event: fatigue ([5]; human, in vivo): 35%
- treatment-related adverse event: nausea ([5]; human, in vivo): 38%
- treatment-related adverse event: vomiting ([5]; human, in vivo): 35%
- dose-limiting toxicities observed ([5]; human, in vivo, 28 days): Grade 3 rash and elevated transaminase concentrations
- IC50 [6]: 10 nM
- number of tyrosine kinases inhibited by more than 50 % [7]: 11
- IC50 (L1196M ALK kinase domain): 32 nM
